From patent US20230114207A1, “THE COMBINATION OF CYCLIN DEPENDENT KINASE 7 INHIBITOR AND IMMUNOTHERAPY FOR TREATMENT OF CANCER” (Dana-Farber Cancer Institute, Inc., priority 2019, published 2023)

Key:
OT-I CD8^+ T cells = experiment: Ex vivo OT-I T cell assay; format: cell-based, mouse
Method: The spleen of OT-I mice was minced with a razor and mashed through a 40 µm strainer to form a single-cell suspension. Separated cells were then treated with RBC lysis buffer and a number of 5×10^5 cells were seeded in a 96-well U-bottom plate. For conditioned medium culture assay, RPP631 cells were treated with either DMSO or YKL-5-124 for 48 hr and drug was washed off after first 6-hour treatment. Subsequently, DMSO-conditioned medium or YKL-5-124-conditioned medium were collected and added to above single-cell suspension in a 96-well U-bottom plate in the presence of Ova257-264 peptide (10 μg/ml, GenScript, Cat #RP10611) for 4 days. Alternatively, DMSO or YKL-5-124 was added directly to single-cell suspension in the presence of Ova257-264 peptide for 4 days in the T cell assay medium (complete RPMI with HEPES, sodium pyruvate, MEM nonessential amino acids and 2-mercaptethonal). T cell activation markers CD69, TNFα. and IFNγ were analyzed by flow cytometry.

RP orthotopic model = experiment: Treatment study in RP orthotopic SCLC model; format: in vivo, mouse
Method: All animal studies were reviewed and approved by the Institutional Animal Care and Use Committee (IACUC) at the New York University Langone Health (NYULH) and Dana-Farber Cancer Institute (DFCI). From 6 weeks of age, mice were induced with adenovirus-Cre recombinase (Ad-Cre) by intratracheal intubation to allow cre-lox-mediated recombination of floxed Rb1, p53 and p130 alleles. For syngeneic orthotopic models, ultrasound-guided transthoracic injection was performed using 200,000 RPP631, RP or RPP-MYC cells in 30 μL PBS directly into the lung of 6 to S-week-old C57BL/6 (Jackson Laboratory, Stock No: 000664). For OT-IT cell assay, OT-I mice were purchased from the Jackson Laboratory (Stock No: 003S31). Both males and females mice were used and all mice were maintained in accordance with the respective NYULH and DFCI on the care, welfare, and treatment of laboratory animals. […]
Animals were anesthetized with isoflurane to perform MRI of the lung field using BioSpec USR70/30 horizontal bore system (Bruker) to scan 24 consecutive sections. Tumor volumes within the whole lung were quantified using 3-D slicer software to reconstruct MRI volumetric measurements as described previously. […]

[1] = system: Cyclin E, A, B, D in RPP631 and DMS79; experiment: Cyclin expression (western blotting, qRT-PCR); format: cell-based, mouse, human; conditions: 24 hours
Method: Cell pellets were collected and then subjected to total RNA extraction using RNeasy Plus Mini Kit (QIAGEN, Cat #74136) according to the manufacturer's instructions, or using TRIzol:Chloroform phase-separation by centrifugation followed by RNA precipitation using isopropanol. The extracted RNA was reversely transcribed into cDNA using the High-Capacity RNA-to-cDNA™ Kit (Thermo Fisher Scientific, Cat #4387406) according to the manufacturer's instructions. The obtained cDNA samples were diluted and used for RT-qPCR. PowerUp™ SYBR™ Green Master Mix (Thermo Fisher Scientific, Cat #A25742) or TaqMan Gene Expression Master Mix (Life Technologies, Cat #4369514). Gene specific primers with sequences listed in Table 3 were used for PCR amplification and detection on the StepOnePlus™ Real-Time PCR System (Thermo Fisher Scientific). RT-qPCR data were normalized to Actb (mouse cells) or GUSB (human cells) and presented as fold changes of gene expression in the test sample compared to the control.
Cells in culture were collected by centrifuging at 1,500 rpm and then washed with ice-cold PBS twice to completely remove residual medium. […] Protein concentrations in lysates were measured by Pierce™ BCA Protein Assay Kit (Thermo Fisher Scientific, Cat #23225) and followed by the addition of SDS loading buffer (6×) and heated at 95° C. for 5 min. […]

RPP631 and GLC16 cells = experiment: Immunofluorescence of γH2AX foci and micronuclei; format: cell-based, mouse, human
Method: Before fixation, cells in PBS were seeded for 30 min on 0.01% Poly-lysine coated coverslip. Cells were then fixed in 4% paraformaldehyde (Diluted the 32% paraformaldehyde in PBS, Electron Microscopy Sciences 15714) for 10 min at room temperature. Cells were washed three times for 5 min with 200 mM glycine containing PBS, followed by permeabilization with 0.3% Triton X-100 in PBS for 15 min. After blocking with 5% bovine serum albumin (BSA) in PBS for 1 hour, cells were incubated with primary antibody (γH2A.X, Cell signaling 9718, 1:200) diluted in a 5% BSA in PBS solution overnight at 4° C. After washing four times with PBS, cells were incubated with Alexa Fluor Plus 555 (Invitrogen A32732, 1: 500) secondary antibody for 1 hour and washed three times with PBS. Cell nuclei were counterstained with DAPI (Biolengend 422801, diluted to 600 nM in PBS) for 5 min. Cells were washed two more times in PBS before mounting with Fluorescence Mounting Medium (Dako, S3023). Images were acquired using Zeiss 880 Laser Scanning Confocal Microscope and were processed by FIJI (NIH). Micronucleus were identified manually by distinct DAPI staining outside the main nucleus.

SMILES: C=CC(=O)Nc1ccc(C(=O)Nc2n[nH]c3c2CN(C(=O)N[C@H](CN(C)C)c2ccccc2)C3(C)C)cc1 [YKL-5-124]
- CD8^+ T cell activity (OT-I CD8^+ T cells; OT-I T cells directly treated): No significant effect
- percentage of CD69^+, TNFα^+ and IFNγ^+ CD8^+ T cells (OT-I CD8^+ T cells; YKL-5-124-conditioned medium of mouse SCLC cells vs DMSO-conditioned medium): significant increase
- added median survival benefit (RP orthotopic model; RP model, vs control): approximately 30 days
- tumor response / tumor growth (MRI tumor volume) (RP orthotopic model; RP orthotopic model): notably delayed tumor growth
- Cyclin E protein and mRNA (CCNE1) levels [1]: increase
- expression of Cyclins A (CCNA1), B (CCNB1), and D (CCND1) [1]: remained unchanged
- percentages of cells containing micronuclei (RPP631 and GLC16 cells; RPP631 and GLC16): considerably increased
- γH2AX foci (RPP631 and GLC16 cells; after 48 hr): significant increase
